From ChEMBL document CHEMBL1201862, “PubChem BioAssay data set” (2004)
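Exposure lasted 48 hours, with cells grown in 96-well plates and compounds tested at five concentrations. Here, GI50 denotes the concentration required for 50% inhibition of growth.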 Activity calls are given as the source filed them. Rule as the data show it: active = GI50 up to about 1.1 µM and inactive = higher.

Experiments:
Test in all cases: growth of human tumour cells (NCI), 48 h
[1] = test system: 786-0
[2] = test system: BT-549
[3] = test system: CAKI-1
[4] = test system: HCC 2998
[5] = test system: HL-60
[6] = test system: HOP-62
[7] = test system: HT-29
[8] = test system: K562
[9] = test system: LOX IMVI
[10] = test system: MOLT-4
[11] = test system: NCI-H226
[12] = test system: NCI-H522
[13] = test system: NCI/ADR-RES
[14] = test system: OVCAR-3
[15] = test system: OVCAR-5
[16] = test system: PC-3
[17] = test system: SNB-75
[18] = test system: U-251
[19] = test system: UO-31
[20] = test system: A498

| Compound | GI50 [1] | GI50 [2] | GI50 [3] | GI50 [4] | GI50 [5] | GI50 [6] | GI50 [7] | GI50 [8] | GI50 [9] | GI50 [10] | GI50 [11] | GI50 [12] | GI50 [13] | GI50 [14] | GI50 [15] | GI50 [16] | GI50 [17] | GI50 [18] | GI50 [19] | GI50 [20] |
| --- | --- | --- | --- | --- | --- | --- | --- | --- | --- | --- | --- | --- | --- | --- | --- | --- | --- | --- | --- | --- |
| O=c1cnn(C2OC(C(O)CO)C(O)C2O)c(=O)[nH]1 (stereo not given) | > 100 µM (inactive) | > 100 µM (inactive) | > 100 µM (inactive) | > 100 µM (inactive) | > 100 µM (inactive) | > 100 µM (inactive) | > 100 µM (inactive) | > 100 µM (inactive) | > 100 µM (inactive) | > 100 µM (inactive) | > 100 µM (inactive) | > 100 µM (inactive) | > 100 µM (inactive) | > 100 µM (inactive) | > 100 µM (inactive) | > 100 µM (inactive) | > 100 µM (inactive) | > 100 µM (inactive) | > 100 µM (inactive) |  |
| COc1ccc(NCc2cccc3c(=O)c4ccc(Cl)cc4oc23)cc1 | > 100 µM (inactive) | > 100 µM (inactive) | > 100 µM (inactive) | > 100 µM (inactive) |  | > 100 µM (inactive) |  | > 100 µM (inactive) | > 100 µM (inactive) | > 100 µM (inactive) | > 100 µM (inactive) | > 100 µM (inactive) | > 100 µM (inactive) | > 100 µM (inactive) | > 100 µM (inactive) | > 100 µM (inactive) | > 100 µM (inactive) | > 100 µM (inactive) | > 100 µM (inactive) | > 100 µM (inactive) |
| CCOC(=O)Nc1cc2c(c(N)n1)N=C(c1ccccc1)CN2 | < 0.01 µM (active) | < 0.01 µM (active) | < 0.01 µM (active) | < 0.01 µM (active) | < 0.0001 µM (active) | < 0.01 µM (active) | < 0.01 µM (active) | < 0.01 µM (active) | < 0.01 µM (active) | < 0.01 µM (active) |  | < 0.01 µM (active) | < 0.0001 µM (active) | < 0.01 µM (active) | < 0.01 µM (active) | < 0.01 µM (active) | < 0.01 µM (active) | < 0.01 µM (active) | < 0.0194 µM (active) | 0.31 µM (active) |
| CCOP(=O)(OCC)/C(F)=C/c1ccccc1 | > 100 µM (inactive) | > 100 µM (inactive) | > 100 µM (inactive) | > 100 µM (inactive) | > 100 µM (inactive) | > 100 µM (inactive) | > 100 µM (inactive) | > 100 µM (inactive) | > 100 µM (inactive) | > 100 µM (inactive) |  | > 100 µM (inactive) | > 100 µM (inactive) | > 100 µM (inactive) | > 100 µM (inactive) | > 100 µM (inactive) | > 100 µM (inactive) | > 100 µM (inactive) | 95.9 µM (inactive) | > 100 µM (inactive) |
| CNC(=O)CC1NC(=O)c2csc(n2)-c2ccc(-c3nc(C4=NC(C(=O)N5CCCC5C(N)=O)CO4)cs3)nc2-c2csc(n2)-c2csc(n2)C(C(C)C)NC(=O)CNC(=O)c2csc(n2)C(C(C)C)NC(=O)c2nc1sc2C (stereo not given) | 0.0214 µM (active) | 0.0268 µM (active) | 0.436 µM (active) | 0.00762 µM (active) | > 25 µM (inactive) | 0.00826 µM (active) | > 25 µM (inactive) | 0.00239 µM (active) | 0.00191 µM (active) | 0.00728 µM (active) | 0.00391 µM (active) |  | 6.05 µM (inactive) | 0.00979 µM (active) | 0.0271 µM (active) | 0.00489 µM (active) | 0.00203 µM (active) | 0.0025 µM (active) | 2.18 µM (inactive) | 0.0923 µM (active) |
| CCSC1=CC(=O)c2nc3ccccc3c3ccnc1c23 | 3.04 µM (inactive) | 12.9 µM (inactive) | 3.82 µM (inactive) | 8.89 µM (inactive) | 2.06 µM (inactive) | 18.4 µM (inactive) | 3.82 µM (inactive) | 1.35 µM (inactive) | 4.51 µM (inactive) | 2.64 µM (inactive) | 10.6 µM (inactive) | 1.45 µM (inactive) | 2.62 µM (inactive) | 2.56 µM (inactive) | 3.85 µM (inactive) | 2.17 µM (inactive) | 6.43 µM (inactive) | 3.33 µM (inactive) | 5.22 µM (inactive) |  |
| CC(=O)NC1C(OCc2ccccc2)OC(CO)C(O)C1OCC(=O)NC(C)C(=O)NC(CCC(=O)Nc1ccc2c(c1)CN1C(=O)c3ccccc3C1=N2)C(N)=O (stereo not given) | > 100 µM (inactive) | > 100 µM (inactive) | > 100 µM (inactive) | > 100 µM (inactive) | > 100 µM (inactive) | > 100 µM (inactive) | > 100 µM (inactive) | > 100 µM (inactive) | > 100 µM (inactive) | 89.1 µM (inactive) |  |  | > 100 µM (inactive) | > 100 µM (inactive) | > 100 µM (inactive) | > 100 µM (inactive) | > 100 µM (inactive) | > 100 µM (inactive) | > 100 µM (inactive) | > 100 µM (inactive) |
| COC(=O)[C@H](COC(=O)/C=C/c1ccc(OC(C)=O)c(OC(C)=O)c1)NC(=O)/C=C/c1ccc(OC(C)=O)c(OC(C)=O)c1 | 13.2 µM (inactive) | 16.3 µM (inactive) | 14 µM (inactive) | 17.6 µM (inactive) | > 100 µM (inactive) | 17.2 µM (inactive) | 22.3 µM (inactive) | > 100 µM (inactive) | 18.4 µM (inactive) | > 100 µM (inactive) | 29.2 µM (inactive) |  | 33.7 µM (inactive) | 16.4 µM (inactive) | 23.4 µM (inactive) | 15 µM (inactive) | 14.6 µM (inactive) | 29.1 µM (inactive) |  | 39.3 µM (inactive) |
| Nc1nc(O)c2c(n1)NCN(CCCN1CCOCC1)C2 | > 100 µM (inactive) | > 100 µM (inactive) | > 100 µM (inactive) | > 100 µM (inactive) |  | > 100 µM (inactive) | > 100 µM (inactive) | > 100 µM (inactive) | > 100 µM (inactive) | 46.7 µM (inactive) | > 100 µM (inactive) | > 100 µM (inactive) | > 100 µM (inactive) | 55.3 µM (inactive) | > 100 µM (inactive) | > 100 µM (inactive) |  | > 100 µM (inactive) | > 100 µM (inactive) | > 100 µM (inactive) |
| COc1ccc(C2(c3ccc(OC)cc3)OC(=O)c3cccc4cccc2c34)cc1 | 5.41 µM (inactive) | 11.4 µM (inactive) | 2.96 µM (inactive) | 3.14 µM (inactive) |  | 6.98 µM (inactive) | 2.4 µM (inactive) | 3.36 µM (inactive) | 8.89 µM (inactive) | 4.58 µM (inactive) | 27.6 µM (inactive) |  | 2.72 µM (inactive) | 4.81 µM (inactive) | > 100 µM (inactive) | 2.16 µM (inactive) |  | 4.38 µM (inactive) | > 100 µM (inactive) | > 100 µM (inactive) |
| COc1ccccc1C(=O)OCC1CCCN2CCCCC12 (stereo not given) | > 100 µM (inactive) | 17.7 µM (inactive) | > 100 µM (inactive) | 17.8 µM (inactive) | 21.1 µM (inactive) |  | 16.6 µM (inactive) | 33.9 µM (inactive) | 17.1 µM (inactive) | 38.5 µM (inactive) | 54.8 µM (inactive) |  | 37.3 µM (inactive) |  |  | 85.5 µM (inactive) | 20.6 µM (inactive) | 26 µM (inactive) | > 100 µM (inactive) | > 100 µM (inactive) |
